Assay results from PMC8434099, “Selected Drug-Likeness Properties of 2-Arylidene-indan-1,3-dione Derivatives—Chemical Compounds with Potential Anti-Cancer Activity” (Molecules, 2021).

Legend:
[1] = Chromatographic (RP-HPLC) examination of lipophilicity, Snyder–Soczewiński model; assay type: physicochemical; conditions: for logkw (ACN) / logkw (MeOH): RP-HPLC, extrapolated Snyder–Soczewiński curve; for logkw (ACN) / −S (ACN): acetonitrile as organic modifier; for logkw (MeOH) / −S (MeOH): methanol as organic modifier; for Δ = |logkw-MeOH − logkw-ACN|: difference of logkw between modifiers; for −S (ACN) / −S (MeOH): slope of the Snyder–Soczewiński regression curve; for Compliance with the lipophilicity assumption of the Lipiński’s rule (logkw below 5): analyses using methanol as a modifier
Experimental: The chromatographic analysis was carried out on a Shimadzu device equipped with a pump system (LC-20AD model), a detector with a diode bench (SPD-M20A model), a degasser (DGU-20A 5R model), a chromatographic oven (CTO-10AS VP), autosampler (SIL-20AC HT model), and chromatographic column (LiChrospher 100 RP-18, 5 μm, Poznań, Poland). Analyses were performed, leading to a multicratic elution. The mobile phase was methanol (J. T. Backer, Phillipsburg, NJ, USA) or acetonitrile (J. T. Backer) and water (Hydrolab, HPL5UV model, Straszyn, Poland) in different volume ratios. In individual analyses, the concentration of the organic modifier expressed as a […] was 0.75–0.95 with a constant step of 0.05. The test compounds were dissolved in methanol. The injection volume was 10 µL. The flow was set at 1 mL/min, the temperature of the chromatography oven at 25 °C, and the detector temperature at 2 °C higher than the ambient temperature. Compounds were detected in the range 190–800 nm. All samples were tested in duplicate at least. Column dead time (tM) was determined using uracil (Sigma Aldrich). The retention coefficient was calculated using the following formula:(1) k=tR/tM−1, where tR is the retention time of the test compound in a given eluent composition, and tM is the chromatographic column dead time.
The value of lipophilicity was determined using the linear dependence of the decimal logarithm from the retention coefficient (logk) and the concentration of the organic modifier in the mobile phase, which was expressed as a volume fraction. For this purpose, the following formula was used:(2) logk=logkw+Sφ, where logk is the decimal logarithm of the retention coefficient, logkw is the value obtained by extrapolating the curve, S is the slope of the regression curve, and φ is the volume fraction of the organic modifier.
The coefficient of determination (R^2) was also calculated for the prepared curves.

[2] = test system: Human Serum Albumin (HSA); experiment: Binding to albumin, fluorescence quenching; conditions: calculated from association constant KS for albumin concentration in blood of 44 mg/mL (660 μM); for fraction unbound: human, human serum albumin solution (10 µM HSA), pH 7.4, read-out: free fraction (albumin)
Experimental: Fluorescence lifetime and fluorescence intensity of HSA solutions were measured using the time-resolved Fluorescence Spectrophotometer Life Spec II (Edinburgh Instruments Ltd., Livingston, UK) with the sub-nanosecond pulsed EPLED diode emitting a light of the wavelength 280 nm. The spectrometer was equipped with electronically cooled photomultiplier Hamamatsu R928 connected with TCC900 PC Card, which incorporates all the electronic modules required for Time-Correlated Single Photon Counting (TCSPC). The fluorescence decays were recorded at an emission wavelength of 350 nm. The data were fitted with an exponential decay to obtain total fluorescence intensity and lifetime. Measurements were performed at room temperature using quartz cuvettes 3.5 × 10 mm. The exposure time of the sample was 30 s. A spectrophotometer Jasco V-550 was used for absorption measurements.
Human Serum Albumin (HSA, 97%) was purchased from Sigma Aldrich. For the fluorescence quenching measurements, the 10 µM PBS solution of HSA at pH 7.4 was prepared, and 10 mM stock solutions of studied compounds were prepared in DMSO (dimethylsulfoxide). The final concentration of studied compounds in HSA solution varied between 0 and 70 µM.
Fluorescence quenching of albumin can be described by the Stern–Volmer Equation [21]: (3) F0/F=KSV[Q]+1, where F0 and F are the fluorescence intensities in the absence and presence of quencher, respectively, [Q] is the concentration of quencher, and KSV is the Stern–Volmer quenching constant.
Due to the fact that a quencher can absorb light at the excitation and/or emission wavelengths, the measured intensity should be corrected according to the Formula [22]:(4) Fobserved=Fcorrect×10^−Aex×dex/2−Aem×dem/2, where Fobserved is the measured fluorescence, Fcorrect is the fluorescence that would be measured in the absence of absorption effect, Aex and Aem are the absorbances of ligand at the excitation (280 nm) and emission wavelength (350 nm), respectively, and dex and dem are the cuvette pathlength in the excitation and emission direction (0.35 cm and 1 cm, respectively).
As the fluorophore can be quenched by collisions or by complex formation with the quencher, there are two types of quenching: dynamic and static. They can be distinguished by lifetime measurements. […] If the quenching is known to be dynamic, then:(5) F0/F=KD[Q]+1=τ0/τ, where τ0 and τ are the lifetimes in the absence and presence of quencher, and KD is the dynamic quenching constant.
In many cases, both static and dynamic quenching occurs for the same fluorophore, then modified Stern–Volmer equation has the form:(6) F0/F=(KD[Q]+1)(KS[Q]+1)=τ0/τ(KS[Q]+1),
The dynamic portion of the quenching (KD[Q] + 1), according to Equation (5), can be determined by lifetime measurements. The portion (KS[Q] + 1) relates to static quenching, and KS is the association constant, which is given by:(7) KS=[F−Q]/[F][Q], where [F−Q] is the concentration of complex fluorophore–quencher, [F] is the concentration of uncomplexed fluorophore (concentration of free HSA molecules), and [Q] is the concentration of quencher.
In this study, the tested compounds were added to the HSA solution, and the fluorescence intensity and lifetime at 350 nm were measured for varying concentrations of ligands. On the basis of absorbance measurements of ligands at 280 nm and 350 nm, the correct fluorescence intensities were estimated using Equation (4). Then, the Stern–Volmer constants, dynamic quenching constants, and association constants of studied compounds were determined using Equations (3), (5) and (6), respectively.
Knowing the value of association constant KS, it is possible to determine the theoretical percentage of the bound and free fraction of the drug for the physiological concentration of albumin. […]

[3] = test system: A549 cells; experiment: Antiproliferative activity, MTT protocol; assay type: cell-based, human; conditions: 0.01 mg/mL, 72 h, relative to control culture
Experimental: (§1) Mouse melanoma (B16F10), human lung carcinoma (A549), and human cervix (HeLa) cell lines (kindly gifted by Prof. Tomasz Drewa, a Chair of Urology, Department of Regenerative Medicine, Collegium Medicum, Nicolaus Copernicus University, Bydgoszcz, Poland) were cultivated at 37 °C, controlled CO2 atmosphere (Binder, Tuttlingen, Germany), and high humidity with RPMI cell culture medium (with L-glutamine and sodium bicarbonate, Sigma-Aldrich), supplemented with 10% of fetal bovine serum (FBS, Biowest, Nuaillé, France), as well as antibiotics (penicillin, streptomycin) and antimycotics (amphotericin B) (Sigma-Aldrich). Combretastatin A4 (CA4), doxorubicin (DoX), and […] were purchased from Sigma-Aldrich.
(§2) Cells were counted with an automated cell counter (Countess® II FL, Invitrogen by Thermo Fisher Scientific Inc., Waltham, MA, USA). A number of 1 × 10^3 (B16F10, A549) or 2.5 × 10^3 cells were plated in each well of 96-well plate (Nunc Edge 2F, Thermo Fisher Scientific Inc.) and left for 24 h incubation prior to drug administration. After this period, the medium was replaced with a fresh medium containing the drugs (at final concentration of 0.01 mg/mL) and left for incubation for the next 72 h. A solution of thiazol blue tetrazolium (MTT, Sigma-Aldrich) was prepared in PBS at concentration of 5 mg/mL and administrated to the cell culture medium at the volume of 10% of the initial medium volume. After 2 h of incubation, the medium was removed, and crystals of formazan were solubilized in isopropanol (Sigma-Aldrich). Absorbance readout was conducted using plate reader Multiskan Spectrum (Thermo Electron Corporation, Waltham, MA, USA) at 570 nm.
(§3) Combretastatin A4 (CA4), doxorubicin (DX), and […] were employed as positive controls. Biological evaluation was performed as three independent experiments; mean response and standard deviation were calculated using Excel software (v. 2013, Microsoft Corporation, Redmond, WA, USA).

[4] = test system: HeLa cells; experiment: Antiproliferative activity, MTT protocol; assay type: cell-based, human; conditions: 0.01 mg/mL, 72 h
Experimental: as §1, §2, §3

Which results are given for `O=C1C(=Cc2ccccc2)C(=O)c2ccccc21` [Compound 3A, 2-benzylidene-1H-indene-1,3(2H)-dione]?
logkw (ACN) [1]: 2.2433; logkw (MeOH) [1]: 3.3210; Δ = |logkw-MeOH − logkw-ACN| [1]: 1.0777; −S (ACN) [1]: 2.4449; −S (MeOH) [1]: 3.3278; bound fraction (albumin) [2]: 97%; fraction unbound [2]: 0.03

What does the source list for `CN(C)c1ccc(C=C2C(=O)c3ccccc3C2=O)cc1` [Compound 3B, 2-{[4-(dimethylamino)phenyl]methylidene}-1H-indene-1,3(2H)-dione]?
logkw (ACN) [1]: 2.2394; logkw (MeOH) [1]: 3.2790; Δ = |logkw-MeOH − logkw-ACN| [1]: 1.0396; −S (ACN) [1]: 2.3613; −S (MeOH) [1]: 3.1597; bound fraction (albumin) [2]: 94%; fraction unbound [2]: 0.06

For `COc1ccc(C=C2C(=O)c3ccccc3C2=O)cc1` [Compound 3C, 2-(4-methoxybenzylidene)-1H-indene-1,3(2H)-dione], which “logkw (ACN)” value [1] is on record?
Its value is 2.3042.

And the “logkw (MeOH)” value [1]?
The value was 3.3554.

What about the “Δ = |logkw-MeOH − logkw-ACN|” value [1] of the same molecule?
Its value is 1.0512.

What about the “−S (ACN)” value [1] of the same molecule?
Its value is 2.4879.

And the “−S (MeOH)” value [1]?
The value was 3.2782.

What about the “bound fraction (albumin)” value [2] of the same molecule?
The value was 94%.

And the fraction unbound [2]?
Its fraction unbound is 0.06.

Which “logkw (ACN)” value [1] does the source give for `Cc1ccc(Oc2ccc(C=C3C(=O)c4ccccc4C3=O)cc2)cc1` [Compound 3D, 2-{[4-(4-methylphenoxy)phenyl]methylidene}-1H-indene-1,3(2H)-dione] here?
Its value is 3.5726.

And the “logkw (MeOH)” value [1]?
The value was 5.6763.

What about the “Compliance with the lipophilicity assumption of the Lipiński’s rule (logkw below 5)” value [1] of the same molecule?
The value was “do not meet this basic assumption of the Lipiński’s rule”.

What about the “Δ = |logkw-MeOH − logkw-ACN|” value [1] of the same molecule?
The value was 2.1037.

And the “−S (ACN)” value [1]?
The value was 3.5570.

And the “−S (MeOH)” value [1]?
The value was 5.4798.

And the “Inhibition of development and division of A549 cells (in words)” value [3]?
Its value is “most strongly inhibited”.

And the “bound fraction (albumin)” value [2]?
Its value is 97%.

And the fraction unbound [2]?
Its fraction unbound is 0.03.

What does the source list for `COc1ccc(C=C2C(=O)c3ccccc3C2=O)cc1O` [Compound 3E, 2-[(3-hydroxy-4-methoxyphenyl)methylidene]-1H-indene-1,3(2H)-dione]?
logkw (ACN) [1]: 1.5356; logkw (MeOH) [1]: 2.2321; Δ = |logkw-MeOH − logkw-ACN| [1]: 0.6965; −S (ACN) [1]: 1.9201; −S (MeOH) [1]: 2.4114; bound fraction (albumin) [2]: 97%; fraction unbound [2]: 0.03

Which “logkw (ACN)” value [1] does the source give for `COc1ccc2c(OC)ccc(C=C3C(=O)c4ccccc4C3=O)c2c1` [Compound 3G, 2-[(4,7-dimethoxynaphthalen-1-yl)methylidene]-1H-indene-1,3(2H)-dione] here?
Its value is 2.8533.

And the “Δ = |logkw-MeOH − logkw-ACN|” value [1]?
Its value is 1.7531.

And the “−S (ACN)” value [1]?
The value was 2.8762.

And the “Inhibition of development and division of A549 cells (in words)” value [3]?
Its value is “most strongly inhibited”.

And the “Number of HeLa cells compared to the control culture” value [4]?
The value was 7.15 ± 3.12%.

And the “Effect on HeLa cells (in words)” value ([4]; relative to control culture)?
The value was “more effective than the control compounds”.

And the “bound fraction (albumin)” value [2]?
The value was 88%.

What about the fraction unbound [2] of the same molecule?
Its fraction unbound is 0.12.

Which results are given for `O=C1C(=Cc2ccoc2)C(=O)c2ccccc21` [Compound 3H, 2-[(furan-3-yl)methylidene]-1H-indene-1,3(2H)-dione]?
logkw (ACN) [1]: 1.9162; logkw (MeOH) [1]: 2.5521; Δ = |logkw-MeOH − logkw-ACN| [1]: 0.6359; −S (ACN) [1]: 2.2011; −S (MeOH) [1]: 2.6243; bound fraction (albumin) [2]: 95%; fraction unbound [2]: 0.05

With `O=C1C(=Cc2ccc(N(c3ccccc3)c3ccccc3)cc2)C(=O)c2ccccc21` [Compound 3I, 2-{[4-(diphenylamino)phenyl]methylidene}-1H-indene-1,3(2H)-dione] as the molecule, how does the “logkw (ACN)” value [1] read?
Its value is 3.8489.

And the “logkw (MeOH)” value [1]?
Its value is 5.3524.

What about the “Compliance with the lipophilicity assumption of the Lipiński’s rule (logkw below 5)” value [1] of the same molecule?
Its value is “do not meet this basic assumption of the Lipiński’s rule”.

What about the “Δ = |logkw-MeOH − logkw-ACN|” value [1] of the same molecule?
The value was 1.5035.

And the “−S (ACN)” value [1]?
Its value is 3.7589.

What about the “−S (MeOH)” value [1] of the same molecule?
The value was 5.0483.

And the “bound fraction (albumin)” value [2]?
Its value is 83%.

What about the fraction unbound [2] of the same molecule?
The fraction unbound was 0.17.

What does the source list for `O=C1C(=Cc2ccc(O)cc2)C(=O)c2ccccc21` [Compound 3J, 2-[(4-hydroxyphenyl)methylidene]-1H-indene-1,3(2H)-dione]?
logkw (MeOH) [1]: 2.3814; Δ = |logkw-MeOH − logkw-ACN| [1]: 1.3880; −S (MeOH) [1]: 2.5802; bound fraction (albumin) [2]: 96%; fraction unbound [2]: 0.04

Which results are given for `O=C1C(=CC2=Cc3cc(O)ccc3OC2)C(=O)c2ccccc21` [Compound 3K, 2-[(6-hydroxy-2H-1-benzopyran-3-yl)methylidene]-1H-indene-1,3(2H)-dione]?
logkw (ACN) [1]: 1.7720; logkw (MeOH) [1]: 2.9717; Δ = |logkw-MeOH − logkw-ACN| [1]: 1.1997; −S (ACN) [1]: 2.1213; −S (MeOH) [1]: 3.0667; bound fraction (albumin) [2]: 92%; fraction unbound [2]: 0.08
